What all share (assay): Antibacterial effect, dilution method on Mueller-Hinton agar
Common to all, as to assay type: cell-based

For assay [1], the system named is Staphylococcus aureus 209-P. The note with it: Mueller-Hinton agar (pH 7.0).
Assay [2] has as its system Escherichia coli NIHJJC-2. Particulars: NIHJJC2, Mueller-Hinton agar (pH 7.0).
In assay [3] the test system is Krebsiella pneumoniae 8045. Particulars: Mueller-Hinton agar (pH 7.0).
The test system of another assay is Serratia marcescens T-26. Particulars: T26, Mueller-Hinton agar (pH 7.0).
The test system of a further assay is Proteus mirabilis 1287. The note with it: Mueller-Hinton agar (pH 7.0).
Another assay has as its system Proteus vulgaris 6897. The note with it: Mueller-Hinton agar (pH 7.0).
Assay [4] relates to Enterobacter cloacae F 1510. The note with it: F1510, Mueller-Hinton agar (pH 7.0).
The test system of assay [5] is Citrobacter freundii F 1526. The note with it: F1526, Mueller-Hinton agar (pH 7.0).

Values after ≈ are worked out from the molar mass of the structure shown.

Broadly, the MIC is the lowest concentration that inhibits growth of the organism. Take `CON=C(C(=O)NC1C(=O)N2C(C(=O)O)=C(C=Cc3nnnn3C)CCC12)c1csc(N)n1` (racemic) [Compound of Ref. Ex. 9, (±)-6,7-cis-7-[2-(2-aminothiazol-4-yl)-2-syn-methoxyiminoacetamido]-3-[2-(1-methyl-1H-tetrazol-5-yl)vinyl]-1-azabicyclo [4.2.0] oct-2-en-8-oxo-2-carboxylic acid]: the MIC was found to be 1.56 µg/mL (≈ 3.29 µM) in assay [1]; 0.01 µg/mL (≈ 0.0211 µM) in assay [2]; 0.1 µg/mL (≈ 0.211 µM) in assay [3]; 1.56 µg/mL (≈ 3.29 µM) in the assay on Serratia marcescens T-26; 0.01 µg/mL (≈ 0.0211 µM) in the assay on Proteus mirabilis 1287; 0.01 µg/mL (≈ 0.0211 µM) against Proteus vulgaris 6897. Also, the MIC in assay [4] and in assay [5] was 0.2 µg/mL (≈ 0.422 µM) throughout.
As for `CCOC(=O)C=CC1=C(C(=O)O)N2C(=O)C(NC(=O)C(=NOC)c3csc(N)n3)C2CC1` (racemic) [Compound of Ref. Ex. 10, (±)-6,7-cis-7-[2-(2-aminothiazol-4-yl)-2-syn-methoxyiminoacetamido]-3-(2-ethoxycarbonvlviayl)-1-azabicyclo [4.2.0]oct-2-en-8-oxo-2-carboxylic acid], the MIC amounted to 6.25 µg/mL (≈ 13.5 µM) in assay [1]; 0.2 µg/mL (≈ 0.432 µM) in assay [2]; 0.39 µg/mL (≈ 0.841 µM) in assay [3]; 3.13 µg/mL (≈ 6.75 µM) against Serratia marcescens T-26; 0.1 µg/mL (≈ 0.216 µM) in the assay with Proteus mirabilis 1287; 0.01 µg/mL (≈ 0.0216 µM) against Proteus vulgaris 6897. The MIC in assay [4] came out at 1.56 µg/mL (≈ 3.37 µM); in assay [5], 0.78 µg/mL (≈ 1.68 µM).

For the origin of these results see EP0112481A1, “Beta-lactam compound” (KYOWA HAKKO KOGYO CO., LTD, priority 1982, dated 1984).
